US20150080292A1 (priority 2013, published 2015)
Values after ≈ are worked out from the molar mass of the structure shown. Where a SMILES comes first, the peptide text is derived from it. Bridges are numbered along the chain shown (N, C = ends). The star is where a group is joined. Pentadecanoyl = CCCCCCCCCCCCCCC(=O)*; Tridecanoyl = CCCCCCCCCCCCC(=O)*; Myristoyl = CCCCCCCCCCCCCC(=O)*

What was measured:
[1] = solvents in which the compound dissolves
[2] = test system: Fusarium oxysporum; assay: Anti-fungus plate experiment (growth diameter on LB medium with drug); format: cell-based; details: LB plates, 28° C.
Protocol: (§1) The anti-fungi experiment, with 6 treatments of different drug concentration and three replicates each treatment and sterile water as blank check, was conducted by mixing Locillomycin-A, Locillomycin-B and Locillomycin-C separately into different plates containing LB medium and, then, inoculating pathogenic fungi in the center of the plates, followed by incubation at 28° C. to check the effectiveness of antifungal function. The criteria of the effectiveness were defined as the size of orthogonal cross diameter of the pathogen growth.

[3] = test system: Rhizoctonia solani; assay: as above; format: cell-based; details: LB plates, 28° C.
Protocol: as §1

[4] = test system: Fusarium graminearum; details: LB plates, 28° C.

CCCCCCCCCCCCC(=O)NC1C(=O)NC(CCC(N)=O)C(=O)NC(CC(=O)O)C(=O)NCC(=O)NC(CC(N)=O)C(=O)NC(CC(=O)O)C(=O)NCC(=O)NC(Cc2ccc(O)cc2)C(=O)NC(C(C)C)C(=O)OC1C (stereo not drawn) [Locillomycin-A] (Tridecanoyl-TQDGNDGYV; ester 1-C; configuration not given here)
Solubility [1]: Methanol, Dimethyl
IC50 [2]: 12.5 µg/mL (≈ 10.9 µM)
IC90 [2]: 56.3 µg/mL (≈ 49.1 µM)
IC50 [3]: 15.5 µg/mL (≈ 13.5 µM)
IC90 [3]: 45.9 µg/mL (≈ 40 µM)
IC50 [4]: 25.4 µg/mL (≈ 22.2 µM)
IC90 [4]: >100 µg/mL

CCCCCCCCCCCCCC(=O)NC1C(=O)NC(CCC(N)=O)C(=O)NC(CC(=O)O)C(=O)NCC(=O)NC(CC(N)=O)C(=O)NC(CC(=O)O)C(=O)NCC(=O)NC(Cc2ccc(O)cc2)C(=O)NC(C(C)C)C(=O)OC1C (stereo not drawn) [Locillomycin-B] (Myristoyl-TQDGNDGYV; ester 1-C; configuration not given here)
Solubility [1]: Methanol, Dimethyl
IC50 [2]: 11.6 µg/mL (≈ 10 µM)
IC90 [2]: 48.9 µg/mL (≈ 42.1 µM)
IC50 [3]: 13.8 µg/mL (≈ 11.9 µM)
IC90 [3]: 40.6 µg/mL (≈ 35 µM)
IC50 [4]: 22.6 µg/mL (≈ 19.5 µM)
IC90 [4]: >100 µg/mL

CCCCCCCCCCCCCCC(=O)NC1C(=O)NC(CCC(N)=O)C(=O)NC(CC(=O)O)C(=O)NCC(=O)NC(CC(N)=O)C(=O)NC(CC(=O)O)C(=O)NCC(=O)NC(Cc2ccc(O)cc2)C(=O)NC(C(C)C)C(=O)OC1C (stereo not drawn) [Locillomycin-C] (Pentadecanoyl-TQDGNDGYV; ester 1-C; configuration not given here)
Solubility [1]: Methanol, Dimethyl
IC50 [2]: 10.3 µg/mL (≈ 8.77 µM)
IC90 [2]: 46.8 µg/mL (≈ 39.9 µM)
IC50 [3]: 12.4 µg/mL (≈ 10.6 µM)
IC90 [3]: 38.6 µg/mL (≈ 32.9 µM)
IC50 [4]: 21.7 µg/mL (≈ 18.5 µM)
IC90 [4]: >100 µg/mL
